Measurements from patent US11104677B2, “Toll-like receptor 9 antagonists” (FRAUNHOFER-GESELLSCHAFT ZUR FÖRDERUNG DER ANGEWANDTEN …, priority 2015, dated 2021).

What follows are compounds tested against T1, TLR9 (Homo sapiens, UniProt Q9NR96) (assay: cell-based reporter assay (NIH 3T3 reporter cell line expressing TLR9, NF-kB driven SEAP, stimulated with CpG ODN 2216)). Conditions: FIG. 3; 5 μM ODN 2216, 0.12 μM-7.8 μM of antagonist.
T1 construct: expressed in transfected cells; host or cells: NIH 3T3 fibroblasts (mouse), stably transfected, NF-kB driven SEAP reporter
T1 sequence (Q9NR96 26-1032): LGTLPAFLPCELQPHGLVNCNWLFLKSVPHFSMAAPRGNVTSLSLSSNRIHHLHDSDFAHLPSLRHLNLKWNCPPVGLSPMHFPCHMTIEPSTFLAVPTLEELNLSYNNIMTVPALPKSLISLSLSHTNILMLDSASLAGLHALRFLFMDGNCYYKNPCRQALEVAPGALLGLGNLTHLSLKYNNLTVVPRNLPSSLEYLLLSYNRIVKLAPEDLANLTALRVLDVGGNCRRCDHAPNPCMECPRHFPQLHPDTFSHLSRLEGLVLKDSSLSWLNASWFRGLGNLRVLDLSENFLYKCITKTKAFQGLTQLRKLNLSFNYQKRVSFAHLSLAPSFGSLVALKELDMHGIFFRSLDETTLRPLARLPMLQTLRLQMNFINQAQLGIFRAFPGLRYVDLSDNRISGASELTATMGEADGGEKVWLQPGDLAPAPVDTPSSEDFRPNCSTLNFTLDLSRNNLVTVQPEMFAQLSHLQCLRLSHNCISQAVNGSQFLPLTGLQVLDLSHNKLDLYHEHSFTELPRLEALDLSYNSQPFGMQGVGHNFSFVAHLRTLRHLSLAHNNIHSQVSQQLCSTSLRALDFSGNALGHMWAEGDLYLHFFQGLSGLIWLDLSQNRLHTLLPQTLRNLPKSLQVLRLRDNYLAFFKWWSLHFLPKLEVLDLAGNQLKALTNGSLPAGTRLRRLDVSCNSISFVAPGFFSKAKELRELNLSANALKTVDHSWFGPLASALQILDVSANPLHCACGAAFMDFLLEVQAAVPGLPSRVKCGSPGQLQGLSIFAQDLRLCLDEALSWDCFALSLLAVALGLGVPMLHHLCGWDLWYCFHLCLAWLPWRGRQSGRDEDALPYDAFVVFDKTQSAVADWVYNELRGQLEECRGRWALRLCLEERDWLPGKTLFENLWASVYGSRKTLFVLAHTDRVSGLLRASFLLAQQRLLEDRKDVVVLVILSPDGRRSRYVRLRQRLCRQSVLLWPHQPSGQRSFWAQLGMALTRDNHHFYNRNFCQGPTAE
Protocol: In context with the present invention, the ‘IC50 value’ is the half maximum inhibitory concentration which is a measure of the effectiveness of a substance inhibiting the function of the TLR9. The IC50 value can be determined by a functional antagonist assay or a competition binding assay. Preferably, the IC50 value is determined by the cell-based reporter assay in section 3, below, of the examples.
A cell based test-system that allows PAMPs to be identified and differentiated via pattern recognition receptors (PRRs) in a reporter gene assay was used (DE 10 2006 031 483, EP 2 041 172). For this assay human PRRs and co-receptors were stably transfected and expressed in NIH 3T3 fibroblasts. This cell line expresses no other PRRs and contains a reporter gene which is activated by PRR-activation. The induction of receptor complexes by their ligands leads, after a signalling cascade, to an activation of transcription factor NF-kB, which regulates the expression of an additional integrated reporter gene, a secreted alkaline phosphatase (SEAP) (Burger-Kentischer, A.; Abele, I. S.; Finkelmeier, D.; Wiesmüller, K.-H.; Rupp, S., A new cell-based innate immune receptor assay for the examination of receptor activity, ligand specificity, signalling pathways and the detection of pyrogens. J. Immunol. Methods 2010, 358 (1), 93-103).
This test system mimics elements of the innate human immune system and can selectively recognize a large number of PAMPs with high sensitivity. Consequently, the PRR-specific cell-based high-throughput feature of the reporter cell lines will provide a fast, flexible and convenient means for lead compound screening in the pharmaceutical drug development fields. For the in vitro screening of the top candidates identified at IDR, the Fraunhofer IGB used this cell-based reporter system to identify TLR9 antagonists in order to determine their activity as well their biocompatibility. Within a first step the NIH3T3 cell line expressing TLR9 was used to measure the inhibitory effect of the TLR9 antagonists.
For the experiment the reporter cell line expressing TL9 was plated in 96-well cell culture plates at a density of 0.3×10^5 cells in DMEM media supplemented with 10% FCS (Invitrogen), 1% L-glutamine (200 mM Invitrogen) and 1% Penicillin-Streptomycin (PenStrep: 100×, Invitrogen). The cells were incubated for 16 h to grow adherent monolayers at 37° C. in a 5% saturated CO2 humidified atmosphere. After overnight incubation, the media was removed and replaced by DMEM medium supplemented with 1% PenStrep, 1% L-glutamine and 0.5% FCS. The media change is important to avoid a unspecific background signal, caused by active remaining phosphatases present in the FCS. The cells are then stimulated with a specific ligand non-methylated CpG ODN 2216 agonist (Invivogen) and the potential antagonists using different concentrations, namely within a range of concentrations of the potential antagonists starting with 0.025 μM (for the antagonist with the highest activity) up to 14 mM for the antagonists with lowest activities.
The ODN ligand has the sequence 5′-ggGGGACGA:TCGTCgggggg-3′ (SEQ ID No. 1). Those represented by capital letters are phosphodiesters, and those in small letters are phosphorothioate. The Palindrome is underlined.
The cells were again incubated in a humidified atmosphere for 16h leading to the expression or reduced expression of SEAP and its secretion into the media. Binding of the antagonist leads to a block of the TLR9, resulting in no or in a reduced expression of the reporter gene (SEAP). Therefore, 50 μl supernatant were taken from the cells and transferred into a 96-well PS microplate flat bottom (Greiner BIO-ONE). The enzyme substrate reaction was initiated by adding 50 μl of the specific substrate. SEAP catalyses the hydrolysis of pNPP to the final product para-nitrophenol (yellow), which can be detected in a photometric analysis using an UV-VIS reader at 405 nm. […]

For c1ccc(-n2cc(CNCCCN3CCOCC3)c(-c3cc4ccccc4o3)n2)cc1 [T5570245], the ODN2216 signal was “dose dependent reduction of the signal”.

Same assay, conditions: FIG. 3; 5 μM ODN 2216, 0.12 μM-7.8 μM of antagonist; read-out: IC50 value

Compound c1ccc(-n2cc(CNCCCN3CCOCC3)c(-c3cc4ccccc4o3)n2)cc1 [T5570245] has an IC50 of 0.8 µM.

Same assay, conditions: Table 5; first 30 candidates; ODN 2216 agonist; n≥3

With Cc1ccc(N2CCN(/N=C/C=C/c3ccccc3)CC2)cc1 [T0505-2171, N(/N1CCN(CC1)c1ccc(cc1)C)═C\C═C\c1ccccc1] the “IC50 in [μM]” value was “agonist”.
For c1ccc(-c2cc(-c3cccnc3)nc3ccccc23)cc1 [T5762626, n1c2c(cccc2)c(cc1-c1cccnc1)-c1ccccc1], the “IC50 in [μM]” value was “agonist”.

Same assay, conditions: Table 5; first 30 candidates; ODN 2216 agonist; n≥3; read-out: IC50 in

In order of rising IC50:
1. COc1cc(/C=C/c2ccc3ccccc3n2)cc(OC)c1 [T5702130, O(C)c1cc(cc(OC)c1)\C═C\c1nc2c(cc1)cccc2]  7.27 µM
2. COc1ccc2c(-c3ccccc3)cc(N3CCOCC3)nc2c1 [T0513-5752, O1CCN(CC1)c1nc2c(ccc(OC)c2)c(c1)-c1ccccc1]  7.77 µM
3. COc1ccc(-n2c(-c3ccncc3)nc3ccccc32)cc1 [T5771455, O(C)c1ccc(-n2c3c(nc2-c2ccncc2)cccc3)cc1]  11.9 µM
4. COc1cccc(OCCCCn2cnc3ccccc32)c1 [T6416309, O(CCCCn1c2c(nc1)cccc2)c1cc(OC)ccc1]  13.3 µM
5. COc1ccc(CCN(C)c2ncnc3c2oc2ccccc23)cc1OC [T0519-4581, o1c2c(ncnc2N(CCc2cc(OC)c(OC)cc2)C)c2c1cccc2]  15.1 µM
6. COc1ccc(/N=C/c2ccc3ncccc3c2)cc1 [T0501-0693, O(C)c1ccc(\N═C\c2cc3c(nccc3)cc2)cc1]  15.7 µM
7. COc1ccc(/C=C/c2ccc3ccccc3n2)c(OC)c1 [T5713724, O(C)c1cc(OC)ccc1\C═C\c1nc2c(cc1)cccc2]  15.9 µM
8. COc1ccc(CCNc2ncnc3c2oc2ccccc23)cc1OC [T5666774, o1c2c(ncnc2NCCc2cc(OC)c(OC)cc2)c2c1cccc2]  30.3 µM
9. c1ccc2c(NCCNc3ncnc4ccccc34)cccc2c1 [T5807811, n1cnc2c(cccc2)c1NCCNc1c2c(ccc1)cccc2]  57 µM
10. COc1ccc2nc3c(nc2c1)-c1cccc2cccc-3c12 [T0504-1221, O(C)c1cc2nc3-c4c5c(-c3nc2cc1)cccc5ccc4]  65.6 µM
11. c1ccc(OCCn2c(-c3ccco3)nc3ccccc32)cc1 [T5456813, o1cccc1-c1nc2c(n1CCOc1ccccc1)cccc2]  73.2 µM
12. c1ccc(N2CCN(c3ccc4ccccc4n3)CC2)cc1 [T6495030, n1c2c(ccc1N1CCN(CC1)c1ccccc1)cccc2]  220 µM
13. CN(C)c1ccc(/C=C/c2ccc3ccccc3n2)cc1 [T0506-4124, n1c2c(ccc1\C═C\c1ccc(N(C)C)cc1)cccc2]  312 µM
14. COc1ccc(/C=N/c2ccc3nc(C)ccc3c2)cc1 [T0501-1111, O(C)c1ccc(cc1)\C═N\c1cc2c(nc(cc2)C)cc1]  488 µM
15. COc1ccc(OCCOc2cccc3cccnc23)cc1 [T5771955, O(CCOc1ccc(OC)cc1)c1c2ncccc2ccc1]  650 µM
16. C(=C\c1ccc2ccccc2n1)/c1ccc(-n2ccnc2)cc1 [T5500062, n1c2c(ccc1\C═C\c1ccc(-n3ccnc3)cc1)cccc2]  777 µM
17. c1ccc(-c2cc(-c3ccncc3)nc3ccccc23)cc1 [T6306924, n1c2c(cccc2)c(cc1-c1ccncc1)-c1ccccc1]  870 µM
18. CCOc1ccccc1OCCOc1cccc2cccnc12 [T0513-2251, O(CCOc1c2ncccc2ccc1)c1ccccc1OCC]  1080 µM
19. COc1ccccc1N1CCN(c2ccc3ccccc3n2)CC1 [T5547436, O(C)c1ccccc1N1CCN(CC1)c1nc2c(cc1)cccc2]  1160 µM
20. c1ccc(-c2nc3ccccc3nc2-c2ccccc2)cc1 [T0504-1257, n1c2c(nc(c1-c1ccccc1)-c1ccccc1)cccc2]  1990 µM
21. COCCNc1ncnc2c1c(-c1ccccc1)cn2-c1ccc(OC)cc1 [T6015017, O(C)c1ccc(-n2cc(c3c2ncnc3NCCOC)-c2ccccc2)cc1]  2030 µM
22. Cc1cc(-c2ccc(-n3ccnc3)cc2)nc2ccccc12 [T5803292, n1c2c(cccc2)c(cc1-c1ccc(-n2ccnc2)cc1)C]  4270 µM
23. c1ccc(-c2cn3c(n2)CCc2ccc4cccnc4c2-3)cc1 [T0502-6934, n1c2n(cc1-c1ccccc1)-c1c(CC2)ccc2c1nccc2]  13200 µM

Same assay, conditions: in the presence of 5 μM of the ODN 2216 agonist; read-out: IC50 in

In order of falling IC50:
1. c1ccc(Cn2cc(CNCc3ccc(CN4CCOCC4)cc3)c(-c3cccnc3)n2)cc1 [T6216617]  7.56 µM
2. COc1ccc(-c2nn(-c3ccccc3)cc2CNCc2ccccc2CN2CCOCC2)cc1OC [T6083277]  7.51 µM
3. COc1ccc(CNc2nc3ccccc3n2CCN2CCCCC2)cc1OC [T0503-2983]  6.78 µM
4. CC(C)(c1ccccc1)c1ccc(OCCCNCCN2CCOCC2)cc1 [T5793071]  6.43 µM
5. COc1ccc(CN2CCN(Cc3c(-c4ccccc4)nc4ccccn34)CC2)cc1OC [T5635793]  6.32 µM
6. Clc1ccc(-c2nn(Cc3ccccc3)cc2CN2CCN(CCN3CCCC3)CC2)cc1 [T5535483]  3.82 µM
7. c1ccc(-n2cc(CNCCN3CCCC3)c(-c3ccc4c(c3)OCCO4)n2)cc1 [T5581956]  3.16 µM
8. COc1ccc(-c2nn(-c3ccccc3)cc2CNCc2ccccc2CN2CCOCC2)cc1 [T5571341]  3.14 µM
9. CCCN1CCC(NCc2cn(-c3ccccc3)nc2-c2ccc3c(c2)OCCO3)CC1 [T5587050]  1.87 µM
10. CCN1CCC(NCc2ccc(-n3cnc4ccccc43)cc2)CC1 [T5820428]  1.78 µM
11. COc1cc(CNC2CCN(Cc3ccccc3)CC2)ccc1OCc1c(C)noc1C [T5364934]  1.62 µM
12. c1ccc(CN2CCN(c3ccnc(N4CCN(Cc5ccccc5)CC4)n3)CC2)cc1 [T5453081]  1.6 µM
13. CCN1CCC(NCc2cn(-c3ccccc3)nc2-c2ccc3c(c2)OCCO3)CC1 [T5581955]  1.44 µM
14. COc1cc(CN2CCN(CCN3CCCC3)CC2)ccc1OCc1ccc(Cl)cc1 [T5428933]  0.962 µM
15. c1ccc(-n2cc(CNCCCN3CCOCC3)c(-c3cc4ccccc4o3)n2)cc1 [T5570245]  0.815 µM
16. CN(C)CCCNCc1cn(-c2ccccc2)nc1-c1ccc2c(c1)OCCO2 [T5581953]  0.201 µM
17. COc1cc2nc(-c3ccccc3)nc(N3CCN(CCN4CCCC4)CC3)c2cc1OC [T5669070]  0.0536 µM
